One data set relates to S-180 sarcoma. The experiment in a line: Transplanted S-180 sarcoma in mice, tumor inhibition. As for the experimental part: Tumors, including B-16 melanoma and S-180 sarcoma, were provided by Shanghai Institute of Materia Medica of the Chinese Academy of Sciences.
The tumor tissue was made into cell suspension. The mice were inoculated subcutaneously in the right axilla with the cell suspension, about 4.5-5×10^6 cells/mouse. After 24 hours, the mice were randomly divided into different groups and housed in separate cages (n=6). […] The administration began on the second day and lasted for seven days, with different doses. The blank control group was given normal saline (NS). The animals were sacrificed and weighed (g body weight) 24 hours after drug withdrawal. The tumors were excised and weighed. The average tumor weight was calculated for each group. According to the following formula, the tumor inhibition rate was calculated and T test was conducted.
According to the formula below, the tumor inhibition rate was calculated and T test was conducted.
(§1) A=average tumor weight (g) of blank control group,
B=average tumor weight (g) of therapeutic group

A further data set deals with B16 melanoma. The experiment in a line: Transplanted B16 melanoma in mice, tumor inhibition. Type of data set: in vivo, C57 mice. To be noted: alone or combined, once a day for seven days. As for the experimental part:
The tumor tissue was made into cell suspension. […] The blank control group was given normal saline (NS). […] The tumors were excised and weighed. The average tumor weight was calculated for each group.
as §1
B =average tumor weight (g) of therapeutic group

In another data set the test system is pancreatic carcinoma. To be noted: cited from earlier work.
Another data set has as its system liver cancer. To be noted: treatment group (placebo control group 7.9 months); cited from earlier work.
[1] abbreviates: Table 18: 5-Fluorouracil 15 mg/kg i.p, Algal proteoglycan 20 mg/kg p.o, alone or combined, once a day for seven days.
Setting [2] is: Table 14: Adriamycin 1 mg/kg i.p, Algal proteoglycan 30 mg/kg p.o.
Setting [3] is: Table 16: Carboplatin 4 mg/kg i.p, Algal proteoglycan 20 mg/kg p.o, alone or combined, once a day for seven days.
The mark [4] stands for this setting: Table 12: Carboplatin 4 mg/kg i.p, Algal proteoglycan 30 mg/kg p.o.
Setting [5] is: Table 13: Carboplatin 4 mg/kg i.p, Algal proteoglycan 60 mg/kg p.o.
[6] abbreviates: Table 15: Cyclophosphamide 7.5 mg/kg i.p, Algal proteoglycan 60 mg/kg p.o, alone or combined, once a day for seven days.
The mark [7] stands for this setting: Table 17: Etoposide 3 mg/kg i.p, Algal proteoglycan 20 mg/kg p.o, alone or combined, once a day for seven days.

Read-outs that look alike come from different tables or passages of the source.

The text below walks through data of patent US11464826B2, “Composition comprising an algal proteoglycan extract and use thereof” (priority 2016, dated 2022).

`O=c1[nH]cc(F)c(=O)[nH]1` [5-Fluorouracil, 5-fluorouracil]: the “inhibitory effect on the transplanted tumor of S-180 sarcoma, in words” value with S-180 sarcoma (5-fluorouracil 15 mg/kg used alone) is on record as “moderate inhibitory effect”. For the same compound, in the data set on S-180 sarcoma (setting [1]), the “Tumor Inhibition Rate (%)” value is given as 33.8% and the “Tumor Weight (g) x ± SD” value came to 1.04 ± 0.52 g.
Consider `COc1cccc2c1C(=O)c1c(O)c3c(c(O)c1C2=O)C[C@@](O)(C(=O)CO)C[C@@H]3O[C@H]1C[C@H](N)[C@H](O)[C@H](C)O1` [Adriamycin], for which, in the data set on B16 melanoma (setting [2]), the “Tumor Inhibition Rate (%)” value is recorded as 41.5% and the “Tumor Weight (g) x ± SD” value amounted to 1.97 ± 0.84 g.
`N.N.O=C([O-])C1(C(=O)[O-])CCC1.[Pt+2]` [Carboplatin]: the “inhibitory effect on the growth of the transplanted tumor of S-180 sarcoma, in words” value in the data set on S-180 sarcoma (Carboplatin 4 mg/kg used alone (P>0.05)) is listed as “no inhibitory effect”. Also, in the data set with S-180 sarcoma (setting [3]), the “Body Weight (g) in the End” value is recorded as 26.4 g, the “Tumor Inhibition Rate (%)” value was found to be 7.7% and the “Tumor Weight (g) x ± SD” value was 1.68 ± 0.53 g. Also, in the data set on B16 melanoma (setting [4]), the “Body Weight (g) in the Beginning” value came to 18.0 g, the “Body Weight (g) in the End” value is reported as 16.7 g, the “Tumor Inhibition Rate (%)” value is recorded as 28.2% and the “Tumor Weight (g) x ± SD” value came out at 1.07 ± 0.88 g. In the data set with B16 melanoma (setting [5]), the “Body Weight (g) in the Beginning” value came to 20.3 g, the “Tumor Inhibition Rate (%)” value amounted to 14.0% and the “Tumor Weight (g) x ± SD” value was determined as 1.23 ± 0.37 g.
In the case of `O=P1(N(CCCl)CCCl)NCCCO1` (stereo not drawn) [Cyclophosphamide], in the data set with S-180 sarcoma (setting [6]), the “Body Weight (g) in the Beginning” value is reported as 22.8 g, the “Body Weight (g) in the End” value was determined as 24.9 g, the “Tumor Inhibition Rate (%)” value stood at 42.2% and the “Tumor Weight (g) x ± SD” value came to 1.11 ± 0.24 g.
`COc1cc([C@@H]2c3cc4c(cc3[C@@H](O[C@@H]3O[C@@H]5CO[C@@H](C)O[C@H]5[C@H](O)[C@H]3O)[C@H]3COC(=O)[C@H]23)OCO4)cc(OC)c1O` [Etoposide]: in the data set with S-180 sarcoma (setting [7]), the “Tumor Inhibition Rate (%)” value is given as 26.9% and the “Tumor Weight (g) x ± SD” value is on record as 1.33 ± 0.28 g.
With `Nc1ccn([C@@H]2O[C@H](CO)[C@@H](O)C2(F)F)c(=O)n1` [Gemcitabine FDR.], the Overall survival with pancreatic carcinoma (Poplon et al, 832 cases) is listed as 6.2 months.
Regarding `Nc1ccn([C@@H]2O[C@H](CO)[C@@H](O)C2(F)F)c(=O)n1` [Gemcitabine], the Overall survival is recorded as 6.2 months with pancreatic carcinoma (Abou-Alfa et al, 349 cases); 5.4 months in the data set with pancreatic carcinoma (Berlin et al, 322 cases); 7.2 months in the data set on pancreatic carcinoma (Colucci et al, 400 cases); 7.1 months in the data set on pancreatic carcinoma (Cunningham et al, 533 cases); 6.0 months with pancreatic carcinoma (Heinemann et al, 195 cases); 7.2 months in the data set with pancreatic carcinoma (Hermann et al, 319 cases). The Overall survival with pancreatic carcinoma (Louvet et al, 313 cases) is given as 7.1 months; with pancreatic carcinoma (Oettle et al, 565 cases) it was 6.3 months; in the data set with pancreatic carcinoma (Poplon et al, 832 cases), 4.9 months; in the data set on pancreatic carcinoma (Rocha Lima et al, 342 cases), 6.3 months; with pancreatic carcinoma (Starhopoulos et al, 145 cases), 6.4 months.
Regarding `CNC(=O)c1cc(Oc2ccc(NC(=O)Nc3ccc(Cl)c(C(F)(F)F)c3)cc2)ccn1` [Sorafenib], the median survival time in the data set with liver cancer is 10.7 months.
Regarding Gemcitabine + capecitabine, the Overall survival was 6.2 months in the data set on pancreatic carcinoma (Cunningham et al, 533 cases) and 8.4 months in the data set with pancreatic carcinoma (Hermann et al, 319 cases).
Gemcitabine + cisplatin: the Overall survival is 8.2 months in the data set with pancreatic carcinoma (Colucci et al, 400 cases) and 7.5 months with pancreatic carcinoma (Heinemann et al, 195 cases).
